Reference: ChEMBL document CHEMBL3991601, “The target landscape of clinical kinase drugs” (Science, 2017)
pKd: −log10 of the molar value. Calls of active or inactive are those of the source. For most assays here, no stated cut-off is given here; in the data, actives have a measured Kd and inactives only a lower limit.

Columns and labels:
[1] = biological target: T1, Dual specificity mitogen-activated protein kinase kinase 6 (Homo sapiens, UniProt P52564)
T1 sequence (P52564 whole entry): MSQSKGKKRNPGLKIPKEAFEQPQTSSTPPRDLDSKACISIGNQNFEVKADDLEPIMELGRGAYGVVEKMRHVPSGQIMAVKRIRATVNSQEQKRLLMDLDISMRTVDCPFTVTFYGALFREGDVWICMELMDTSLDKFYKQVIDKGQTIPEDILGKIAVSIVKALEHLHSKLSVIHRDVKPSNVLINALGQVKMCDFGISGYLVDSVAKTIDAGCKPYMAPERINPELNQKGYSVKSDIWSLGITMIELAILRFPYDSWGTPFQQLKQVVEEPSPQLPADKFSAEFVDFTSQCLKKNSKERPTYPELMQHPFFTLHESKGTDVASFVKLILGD

[2] = biological target: Tyrosine-protein kinase Fyn (Homo sapiens, UniProt P06241)
Tyrosine-protein kinase Fyn, sequence (P06241 whole entry): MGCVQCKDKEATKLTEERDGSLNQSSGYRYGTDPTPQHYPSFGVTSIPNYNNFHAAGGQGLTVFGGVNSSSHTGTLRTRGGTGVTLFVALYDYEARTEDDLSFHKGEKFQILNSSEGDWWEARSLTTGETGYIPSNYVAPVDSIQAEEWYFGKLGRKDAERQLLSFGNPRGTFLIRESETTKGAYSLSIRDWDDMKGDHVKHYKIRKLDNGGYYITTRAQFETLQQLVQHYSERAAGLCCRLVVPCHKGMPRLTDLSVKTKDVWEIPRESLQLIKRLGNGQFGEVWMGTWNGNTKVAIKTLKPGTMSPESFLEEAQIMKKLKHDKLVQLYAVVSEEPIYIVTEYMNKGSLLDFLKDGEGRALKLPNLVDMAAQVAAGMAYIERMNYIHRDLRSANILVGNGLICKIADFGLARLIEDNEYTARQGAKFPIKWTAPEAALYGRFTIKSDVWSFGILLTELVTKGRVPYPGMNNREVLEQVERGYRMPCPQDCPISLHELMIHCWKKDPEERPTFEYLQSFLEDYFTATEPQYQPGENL

Aurora kinase B = Aurora kinase B (Homo sapiens, UniProt Q96GD4)
Aurora kinase B, sequence (Q96GD4 whole entry, the tested form may be a part): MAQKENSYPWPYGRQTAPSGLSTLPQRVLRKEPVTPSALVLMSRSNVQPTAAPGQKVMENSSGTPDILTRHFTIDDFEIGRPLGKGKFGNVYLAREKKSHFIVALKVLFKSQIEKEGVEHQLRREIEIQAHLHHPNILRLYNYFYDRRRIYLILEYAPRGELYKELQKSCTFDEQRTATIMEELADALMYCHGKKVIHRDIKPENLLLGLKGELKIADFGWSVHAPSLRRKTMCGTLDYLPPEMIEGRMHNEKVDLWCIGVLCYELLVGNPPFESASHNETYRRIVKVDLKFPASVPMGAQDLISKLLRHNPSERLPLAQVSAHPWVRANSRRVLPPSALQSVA

[3] = biological target: T2, AarF domain-containing protein kinase 1 (Homo sapiens, UniProt Q86TW2)
T2 sequence (Q86TW2 whole entry): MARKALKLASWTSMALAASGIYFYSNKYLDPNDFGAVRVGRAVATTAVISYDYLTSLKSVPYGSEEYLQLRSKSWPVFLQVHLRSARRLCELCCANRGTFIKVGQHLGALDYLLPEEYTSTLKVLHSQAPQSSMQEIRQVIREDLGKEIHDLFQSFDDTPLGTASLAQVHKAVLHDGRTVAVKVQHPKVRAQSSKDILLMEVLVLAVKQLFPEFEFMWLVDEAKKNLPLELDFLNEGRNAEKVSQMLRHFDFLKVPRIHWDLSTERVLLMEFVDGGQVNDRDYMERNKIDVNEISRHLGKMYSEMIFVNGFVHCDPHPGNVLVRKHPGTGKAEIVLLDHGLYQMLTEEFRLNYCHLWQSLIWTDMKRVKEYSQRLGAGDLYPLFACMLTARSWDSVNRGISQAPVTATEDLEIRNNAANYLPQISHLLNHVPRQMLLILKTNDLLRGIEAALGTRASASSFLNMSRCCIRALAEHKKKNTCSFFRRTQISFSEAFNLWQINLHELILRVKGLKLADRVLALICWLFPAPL

[4] = biological target: T3, Ferrochelatase, mitochondrial (Homo sapiens, UniProt P22830)
T3 sequence (P22830 whole entry): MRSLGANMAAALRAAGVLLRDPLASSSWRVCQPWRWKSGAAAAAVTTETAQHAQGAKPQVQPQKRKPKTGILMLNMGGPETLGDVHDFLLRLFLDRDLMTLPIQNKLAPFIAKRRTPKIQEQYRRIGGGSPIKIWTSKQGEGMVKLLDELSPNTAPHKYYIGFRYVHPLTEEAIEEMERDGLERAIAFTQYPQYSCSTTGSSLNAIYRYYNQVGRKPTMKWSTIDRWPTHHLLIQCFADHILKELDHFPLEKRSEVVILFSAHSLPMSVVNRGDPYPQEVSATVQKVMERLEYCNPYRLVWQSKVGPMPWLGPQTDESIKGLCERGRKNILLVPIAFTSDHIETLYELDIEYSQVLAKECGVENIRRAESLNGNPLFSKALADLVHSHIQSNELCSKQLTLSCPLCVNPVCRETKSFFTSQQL

[5] = biological target: Tyrosine-protein kinase CSK (Homo sapiens, UniProt P41240)
Tyrosine-protein kinase CSK, sequence (P41240 whole entry): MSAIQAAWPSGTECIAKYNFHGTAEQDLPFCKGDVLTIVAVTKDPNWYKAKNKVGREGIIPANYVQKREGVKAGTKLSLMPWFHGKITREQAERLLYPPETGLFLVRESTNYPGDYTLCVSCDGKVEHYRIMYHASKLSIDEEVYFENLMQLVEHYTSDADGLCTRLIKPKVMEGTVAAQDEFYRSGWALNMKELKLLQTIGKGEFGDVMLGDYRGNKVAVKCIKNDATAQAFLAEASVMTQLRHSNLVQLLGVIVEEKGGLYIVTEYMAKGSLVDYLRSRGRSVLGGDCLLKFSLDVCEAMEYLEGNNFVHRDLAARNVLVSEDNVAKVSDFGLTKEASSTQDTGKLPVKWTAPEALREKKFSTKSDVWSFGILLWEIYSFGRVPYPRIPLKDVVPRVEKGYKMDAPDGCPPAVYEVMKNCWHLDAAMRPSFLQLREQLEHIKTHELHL

Deoxycytidine kinase = Deoxycytidine kinase (Homo sapiens, UniProt P27707)
Deoxycytidine kinase, sequence (P27707 whole entry): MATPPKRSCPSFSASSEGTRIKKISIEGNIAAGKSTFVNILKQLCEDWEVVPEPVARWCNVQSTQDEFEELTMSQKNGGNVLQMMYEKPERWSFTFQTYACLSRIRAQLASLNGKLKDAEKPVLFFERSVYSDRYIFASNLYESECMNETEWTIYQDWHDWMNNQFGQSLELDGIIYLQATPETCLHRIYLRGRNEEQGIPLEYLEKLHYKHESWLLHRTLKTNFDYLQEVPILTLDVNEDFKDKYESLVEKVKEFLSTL

[6] = biological target: T4, Mitogen-activated protein kinase kinase kinase 5 (Homo sapiens, UniProt Q99683)
T4 sequence (Q99683 whole entry): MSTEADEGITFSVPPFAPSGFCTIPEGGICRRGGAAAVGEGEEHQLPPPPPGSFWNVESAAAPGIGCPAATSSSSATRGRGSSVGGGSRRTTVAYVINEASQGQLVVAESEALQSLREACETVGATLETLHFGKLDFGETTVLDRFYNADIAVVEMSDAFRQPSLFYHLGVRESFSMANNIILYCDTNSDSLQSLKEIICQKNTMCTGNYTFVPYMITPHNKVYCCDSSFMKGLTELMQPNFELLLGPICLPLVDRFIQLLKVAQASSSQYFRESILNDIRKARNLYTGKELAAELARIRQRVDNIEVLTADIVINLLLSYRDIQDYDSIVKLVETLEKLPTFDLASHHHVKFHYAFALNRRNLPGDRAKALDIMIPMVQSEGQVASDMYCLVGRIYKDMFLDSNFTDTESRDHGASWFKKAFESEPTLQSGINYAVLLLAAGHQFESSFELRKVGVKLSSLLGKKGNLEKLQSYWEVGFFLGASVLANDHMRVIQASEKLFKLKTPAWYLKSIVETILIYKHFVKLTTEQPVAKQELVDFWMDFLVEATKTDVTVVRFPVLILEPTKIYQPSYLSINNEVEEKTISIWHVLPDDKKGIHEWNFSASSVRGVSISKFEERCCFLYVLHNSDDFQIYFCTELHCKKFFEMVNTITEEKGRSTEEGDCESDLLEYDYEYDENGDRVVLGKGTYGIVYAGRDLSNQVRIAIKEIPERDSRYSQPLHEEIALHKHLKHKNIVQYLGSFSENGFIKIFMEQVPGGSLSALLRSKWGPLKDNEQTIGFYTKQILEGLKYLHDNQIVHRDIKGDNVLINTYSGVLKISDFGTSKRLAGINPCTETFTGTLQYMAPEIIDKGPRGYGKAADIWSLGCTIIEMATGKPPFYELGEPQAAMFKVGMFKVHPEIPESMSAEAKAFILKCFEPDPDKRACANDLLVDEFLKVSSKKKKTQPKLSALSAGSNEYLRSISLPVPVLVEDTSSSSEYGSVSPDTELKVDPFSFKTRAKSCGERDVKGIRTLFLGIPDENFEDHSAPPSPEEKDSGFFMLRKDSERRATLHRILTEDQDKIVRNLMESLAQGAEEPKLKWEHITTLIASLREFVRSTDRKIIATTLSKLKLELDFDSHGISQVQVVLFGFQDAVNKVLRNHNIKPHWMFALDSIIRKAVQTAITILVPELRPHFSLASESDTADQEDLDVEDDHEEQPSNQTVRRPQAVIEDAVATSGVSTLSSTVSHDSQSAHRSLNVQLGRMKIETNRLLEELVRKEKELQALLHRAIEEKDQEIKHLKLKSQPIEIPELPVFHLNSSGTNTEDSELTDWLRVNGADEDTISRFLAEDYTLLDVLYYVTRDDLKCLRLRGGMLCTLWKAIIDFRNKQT

[7] = biological target: Proto-oncogene tyrosine-protein kinase Src (Homo sapiens, UniProt P12931)
Proto-oncogene tyrosine-protein kinase Src, sequence (P12931 2-536 limits assumed): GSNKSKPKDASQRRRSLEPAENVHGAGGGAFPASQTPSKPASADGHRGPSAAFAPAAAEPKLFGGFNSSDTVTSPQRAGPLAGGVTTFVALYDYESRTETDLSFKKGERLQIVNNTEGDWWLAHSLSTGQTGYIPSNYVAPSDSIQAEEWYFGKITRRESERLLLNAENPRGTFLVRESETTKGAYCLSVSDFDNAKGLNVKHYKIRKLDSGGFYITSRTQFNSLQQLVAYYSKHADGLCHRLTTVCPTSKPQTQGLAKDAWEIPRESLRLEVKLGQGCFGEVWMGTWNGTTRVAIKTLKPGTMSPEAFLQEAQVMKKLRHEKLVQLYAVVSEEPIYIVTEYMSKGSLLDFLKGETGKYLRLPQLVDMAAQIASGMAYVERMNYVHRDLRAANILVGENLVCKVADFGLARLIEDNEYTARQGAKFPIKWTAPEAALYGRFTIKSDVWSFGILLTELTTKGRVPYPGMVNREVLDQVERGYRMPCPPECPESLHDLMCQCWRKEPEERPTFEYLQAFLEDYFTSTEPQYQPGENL

[8] = biological target: Inosine-5'-monophosphate dehydrogenase 2 (Homo sapiens, UniProt P12268)

| SMILES | Kd [1] | Kd [2] | Kd (Aurora kinase B) | Kd [3] | Kd [4] | Kd [5] | Kd (Deoxycytidine kinase) | Kd [6] | Kd [7] | Kd [8] | pKd [3] | pKd [4] | pKd (Aurora kinase B) |
| --- | --- | --- | --- | --- | --- | --- | --- | --- | --- | --- | --- | --- | --- |
| Cn1cc(-c2cnc3ccc4ccc(CS(=O)(=O)NCc5ccccn5)cc4c(=O)c3c2)cn1 [MK-8033] | > 30 µM (inactive) | > 30 µM (inactive) | > 30 µM (inactive) | > 30 µM (inactive) | 32.6 µM (active) | > 30 µM (inactive) | > 30 µM (inactive) | > 30 µM (inactive) | > 30 µM (inactive) | > 30 µM (inactive) |  |  |  |
| CN(C[C@@H]1COCCO1)S(=O)(=O)Nc1ccc2ccc3ncc(-c4cnn(C)c4)cc3c(=O)c2c1 [MK-2461] | > 30 µM (inactive) | > 30 µM (inactive) | > 30 µM (inactive) | > 30 µM (inactive) | 3.42 µM (active) | > 30 µM (inactive) | > 30 µM (inactive) | > 30 µM (inactive) | > 30 µM (inactive) | > 30 µM (inactive) |  |  |  |
| CN1C/C=C/CCOc2cccc(c2)-c2ccnc(n2)Nc2cccc(c2)C1 [ZOTIRACICLIB] | > 30 µM (inactive) | > 30 µM (inactive) | > 30 µM (inactive) |  |  | > 30 µM (inactive) | > 30 µM (inactive) | > 30 µM (inactive) | > 30 µM (inactive) | > 30 µM (inactive) | 7.64 | 6.61 |  |
| Cc1cc(Nc2ncc(Cl)c(Nc3ccccc3S(=O)(=O)C(C)C)n2)c(OC(C)C)cc1C1CCNCC1 [CERITINIB] | > 30 µM (inactive) | > 30 µM (inactive) | > 30 µM (inactive) | > 30 µM (inactive) | > 30 µM (inactive) | > 30 µM (inactive) | > 30 µM (inactive) | > 30 µM (inactive) | > 30 µM (inactive) |  |  |  |  |
| Cc1nc2cc(-n3ncc(C(=O)c4cc5ccccc5[nH]4)c3N)ccc2[nH]1 [FGFR INHIBITOR DEBIO 1347] | > 30 µM (inactive) | > 30 µM (inactive) | > 30 µM (inactive) | > 30 µM (inactive) | > 30 µM (inactive) | > 30 µM (inactive) | > 30 µM (inactive) | > 30 µM (inactive) | > 30 µM (inactive) | > 30 µM (inactive) |  |  |  |
| C[C@@H](N)c1ccc(C(=O)Nc2ccnc3[nH]ccc23)cc1 [Y-39983] | > 30 µM (inactive) | > 30 µM (inactive) | > 30 µM (inactive) | > 30 µM (inactive) | > 30 µM (inactive) | > 30 µM (inactive) | > 30 µM (inactive) | 50.5 µM (active) | > 30 µM (inactive) | > 30 µM (inactive) |  |  |  |
| N#CC1(c2ccc(NC(=O)c3cccnc3NCc3ccncc3)cc2)CCCC1 [RIVOCERANIB] | > 30 µM (inactive) | > 30 µM (inactive) | > 30 µM (inactive) | > 30 µM (inactive) | > 30 µM (inactive) | > 30 µM (inactive) | > 30 µM (inactive) | > 30 µM (inactive) | > 30 µM (inactive) | > 30 µM (inactive) |  |  |  |
| CCS(=O)(=O)c1cccc(-c2cc(C(=O)NC3CCN(C)CC3)c(C)c3[nH]c4ncc(C)cc4c23)c1 [TAK-901] | > 30 µM (inactive) | 0.095 µM (active) | 0.044 µM (active) | > 30 µM (inactive) | > 30 µM (inactive) | > 30 µM (inactive) | > 30 µM (inactive) | > 30 µM (inactive) | 0.092 µM (active) |  |  |  |  |
| CNC(=O)c1nn(C)c2c1C(C)(C)Cc1cnc(Nc3ccc(N4CCN(C)CC4)cc3)nc1-2 [MILCICLIB] | > 30 µM (inactive) | 1.44 µM (active) |  | > 30 µM (inactive) | > 30 µM (inactive) | > 30 µM (inactive) | > 30 µM (inactive) | > 30 µM (inactive) | 5.31 µM (active) |  |  |  | 5.12 |
| Cc1nc(Nc2n[nH]c3c2CN(C(=O)N[C@H](CN(C)C)c2ccccc2)C3(C)C)c2sccc2n1 [PF-03758309] | > 30 µM (inactive) | 1.23 µM (active) | 2.08 µM (active) | > 30 µM (inactive) | > 30 µM (inactive) | > 30 µM (inactive) | > 30 µM (inactive) | > 30 µM (inactive) | 2.08 µM (active) |  |  |  |  |
| Nc1ncnc2c1c(-c1cccc(OCc3ccccc3)c1)cn2[C@H]1C[C@@H](CN2CCC2)C1 [AEW-541] | > 30 µM (inactive) | > 30 µM (inactive) | > 30 µM (inactive) | > 30 µM (inactive) | 6.5 µM (active) | > 30 µM (inactive) | > 30 µM (inactive) | > 30 µM (inactive) | 3.55 µM (active) |  |  |  |  |
| COc1ccc(S(=O)(=O)N(C(C)=O)c2ccccc2/C=C/c2cc[n+]([O-])cc2)cc1 [HMN-214] | > 30 µM (inactive) | > 30 µM (inactive) | > 30 µM (inactive) | > 30 µM (inactive) | > 30 µM (inactive) | > 30 µM (inactive) | > 30 µM (inactive) | > 30 µM (inactive) | > 30 µM (inactive) |  |  |  |  |
| NC(=O)Nc1cc(-c2cccc(F)c2)sc1C(=O)N[C@H]1CCCNC1 [AZD-7762] | > 30 µM (inactive) | 0.284 µM (active) | 0.715 µM (active) | > 30 µM (inactive) | > 30 µM (inactive) |  | > 30 µM (inactive) | > 30 µM (inactive) | 0.109 µM (active) | > 30 µM (inactive) |  |  |  |
| FC(F)(F)c1ccc(/C=C/c2nc(COc3ccc(CCCCn4ccnn4)cc3)co2)cc1 [MUBRITINIB] | > 30 µM (inactive) | > 30 µM (inactive) | > 30 µM (inactive) | > 30 µM (inactive) | > 30 µM (inactive) | > 30 µM (inactive) | > 30 µM (inactive) | > 30 µM (inactive) | > 30 µM (inactive) |  |  |  |  |
